Measured values reported in the NIST ThermoML archive (doi:10.1021/acs.jced.8b00064).

What was measured:
[1] = for vapor or sublimation pressure: Liquid, Closed cell (Static) method
[2] = Molar enthalpy of transition or fusion; settings: Crystal; DSC
[3] = molar heat capacity at constant pressure; settings: 101.33 kPa, Crystal, DSC

O=C(O)CC(O)(CC(=O)O)C(=O)O [citric acid]
Settings | Normal melting temperature [°C]
[1], Crystal, DTA | 151.8

Settings | Molar enthalpy of transition or fusion [kJ/mol]
[2] | 59.2

[3]
Settings | molar heat capacity at constant pressure [J/K/mol]
324.9 K | 239.8
328.2 K | 243
331.5 K | 245.9
334.9 K | 248.6
338.2 K | 251.2
341.5 K | 253.6
344.9 K | 255.9
348.2 K | 258.2
351.5 K | 260.4
354.9 K | 262.5
358.2 K | 264.6
361.5 K | 266.6
364.9 K | 268.7
368.2 K | 270.7
371.5 K | 272.6
374.9 K | 274.5
378.2 K | 276.2
381.5 K | 278.1
384.9 K | 279.9
388.2 K | 281.8
391.5 K | 283.7
394.9 K | 286

CCCCO [butan-1-ol]
[1]
Settings | vapor or sublimation pressure [kPa]
333.2 K | 8.1
348.2 K | 17.5
